Experimental data taken from the kinase profiling compilation of Christmann-Franck et al. (2016).

Legend:
Assay in all cases: radiometric filter-binding kinase assay, Kinase HotSpot
Settings in all cases: compound 0.5 µM; ATP 10 µM
AKT1 (human) = AKT1 (human) (UniProt P31749)
BLK (human) = BLK (human) (UniProt P51451)
CAMK2B (human) = CAMK2B (human) (UniProt Q13554)
CAMKK1 (human) = CAMKK1 (human) (UniProt Q8N5S9)
CDK2 CCNA2 (human) = CDK2 CCNA2 (human) (UniProt P24941+P20248)
CDK5 CDK5R1 p25 (human) = CDK5 CDK5R1 p25 (human) (UniProt Q00535+Q15078)
CDK5 CDK5R1 p25 (human), sequence (Q00535 whole entry, looked up): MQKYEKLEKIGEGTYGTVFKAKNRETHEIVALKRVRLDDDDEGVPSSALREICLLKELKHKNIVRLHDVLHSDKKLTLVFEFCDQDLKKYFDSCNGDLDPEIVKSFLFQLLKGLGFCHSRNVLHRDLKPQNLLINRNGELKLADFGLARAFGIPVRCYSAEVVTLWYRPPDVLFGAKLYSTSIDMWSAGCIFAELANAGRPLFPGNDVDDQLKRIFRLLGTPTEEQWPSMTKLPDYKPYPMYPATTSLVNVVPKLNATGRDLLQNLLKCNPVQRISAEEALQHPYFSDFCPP
CDK5 CDK5R1 p25 (human), sequence (Q15078 whole entry, looked up): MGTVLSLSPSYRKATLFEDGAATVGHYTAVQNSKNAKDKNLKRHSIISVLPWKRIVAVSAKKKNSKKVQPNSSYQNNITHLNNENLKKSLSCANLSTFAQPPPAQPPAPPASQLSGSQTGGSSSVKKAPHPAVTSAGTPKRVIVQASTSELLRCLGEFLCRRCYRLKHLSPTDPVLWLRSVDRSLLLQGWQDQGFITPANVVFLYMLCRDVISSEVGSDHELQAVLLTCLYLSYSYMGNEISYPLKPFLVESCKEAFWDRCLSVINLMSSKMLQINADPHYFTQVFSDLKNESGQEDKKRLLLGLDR

CSNK1G3 (human) = CSNK1G3 (human) (UniProt Q9Y6M4)
DAPK2 (human) = DAPK2 (human) (UniProt Q9UIK4)
DAPK2 (human), sequence (Q9UIK4 whole entry, looked up): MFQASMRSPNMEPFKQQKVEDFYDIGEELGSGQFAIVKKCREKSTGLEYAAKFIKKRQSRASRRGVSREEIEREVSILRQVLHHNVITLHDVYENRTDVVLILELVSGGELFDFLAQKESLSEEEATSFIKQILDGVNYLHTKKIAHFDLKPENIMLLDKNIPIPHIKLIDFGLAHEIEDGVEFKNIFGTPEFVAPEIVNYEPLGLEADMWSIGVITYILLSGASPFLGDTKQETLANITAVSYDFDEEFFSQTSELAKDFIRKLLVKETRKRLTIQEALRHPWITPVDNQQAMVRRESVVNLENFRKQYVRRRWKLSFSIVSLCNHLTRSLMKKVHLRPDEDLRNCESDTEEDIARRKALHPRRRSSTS

DDR2 (human) = DDR2 (human) (UniProt Q16832)
DSTYK (human) = DSTYK (human) (UniProt Q6XUX3)
FES (human) = FES (human) (UniProt P07332)
FGFR1 (human) = FGFR1 (human) (UniProt P11362)
FLT3 (human) = FLT3 (human) (UniProt P36888)
FLT3 (human), sequence (P36888 whole entry, looked up): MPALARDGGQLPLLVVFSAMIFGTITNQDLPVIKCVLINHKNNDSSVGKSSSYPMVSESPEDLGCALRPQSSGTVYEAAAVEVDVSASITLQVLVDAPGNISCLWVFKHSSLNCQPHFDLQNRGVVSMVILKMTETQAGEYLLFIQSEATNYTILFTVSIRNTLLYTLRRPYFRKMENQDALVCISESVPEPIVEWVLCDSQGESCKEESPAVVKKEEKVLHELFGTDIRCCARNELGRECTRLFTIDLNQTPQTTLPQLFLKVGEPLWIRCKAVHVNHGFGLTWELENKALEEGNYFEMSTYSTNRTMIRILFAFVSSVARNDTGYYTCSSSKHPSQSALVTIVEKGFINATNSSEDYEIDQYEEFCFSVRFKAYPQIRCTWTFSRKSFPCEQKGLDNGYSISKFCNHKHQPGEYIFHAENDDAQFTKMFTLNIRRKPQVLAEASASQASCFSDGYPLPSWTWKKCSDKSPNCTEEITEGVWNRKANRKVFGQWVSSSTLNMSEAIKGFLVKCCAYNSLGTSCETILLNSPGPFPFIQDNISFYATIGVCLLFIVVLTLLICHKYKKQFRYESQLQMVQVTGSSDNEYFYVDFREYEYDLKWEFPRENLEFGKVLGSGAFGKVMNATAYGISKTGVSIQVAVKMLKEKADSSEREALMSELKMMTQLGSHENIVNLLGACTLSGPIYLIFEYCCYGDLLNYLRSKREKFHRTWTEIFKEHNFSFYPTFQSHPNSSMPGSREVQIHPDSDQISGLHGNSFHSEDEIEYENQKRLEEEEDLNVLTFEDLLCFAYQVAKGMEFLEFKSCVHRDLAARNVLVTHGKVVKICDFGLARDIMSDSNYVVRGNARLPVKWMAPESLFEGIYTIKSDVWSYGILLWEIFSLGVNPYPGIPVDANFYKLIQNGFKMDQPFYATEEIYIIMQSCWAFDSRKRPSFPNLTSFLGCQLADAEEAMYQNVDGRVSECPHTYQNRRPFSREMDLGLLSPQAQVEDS

GRK7 (human) = GRK7 (human) (UniProt Q8WTQ7)
HIPK1 (human) = HIPK1 (human) (UniProt Q86Z02)
ITK (human) = ITK (human) (UniProt Q08881)
JAK2 JH1 JH2 (human) = JAK2 JH1 JH2 (human) (UniProt O60674)
JAK3 JH1 JH2 (human) = JAK3 JH1 JH2 (human) (UniProt P52333)
LIMK1 (human) = LIMK1 (human) (UniProt P53667)
MAP2K1 (human) = MAP2K1 (human) (UniProt Q02750)
MAPK3 (human) = MAPK3 (human) (UniProt P27361)
MAPKAPK2 (human) = MAPKAPK2 (human) (UniProt P49137)
MAPKAPK5 (human) = MAPKAPK5 (human) (UniProt Q8IW41)
MELK (human) = MELK (human) (UniProt Q14680)
NTRK1 (human) = NTRK1 (human) (UniProt P04629)
PAK3 (human) = PAK3 (human) (UniProt O75914)
PAK3 (human), sequence (O75914 whole entry, looked up): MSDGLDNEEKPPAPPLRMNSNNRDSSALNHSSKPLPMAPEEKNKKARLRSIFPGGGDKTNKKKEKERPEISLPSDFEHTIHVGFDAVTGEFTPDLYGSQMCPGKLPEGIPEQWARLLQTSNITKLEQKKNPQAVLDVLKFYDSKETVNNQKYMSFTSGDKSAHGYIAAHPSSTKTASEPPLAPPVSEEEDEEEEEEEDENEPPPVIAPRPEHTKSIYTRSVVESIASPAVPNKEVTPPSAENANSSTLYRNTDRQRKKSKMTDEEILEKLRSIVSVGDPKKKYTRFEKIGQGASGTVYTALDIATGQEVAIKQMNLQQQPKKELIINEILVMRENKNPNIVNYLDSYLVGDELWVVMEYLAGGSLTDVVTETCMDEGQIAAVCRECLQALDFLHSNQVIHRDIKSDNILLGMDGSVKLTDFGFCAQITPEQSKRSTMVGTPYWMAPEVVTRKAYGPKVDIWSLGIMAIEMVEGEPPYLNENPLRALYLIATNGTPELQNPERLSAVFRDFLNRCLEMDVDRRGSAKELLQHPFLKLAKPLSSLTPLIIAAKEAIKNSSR

PAK4 (human) = PAK4 (human) (UniProt O96013)
PAK4 (human), sequence (O96013 whole entry, looked up): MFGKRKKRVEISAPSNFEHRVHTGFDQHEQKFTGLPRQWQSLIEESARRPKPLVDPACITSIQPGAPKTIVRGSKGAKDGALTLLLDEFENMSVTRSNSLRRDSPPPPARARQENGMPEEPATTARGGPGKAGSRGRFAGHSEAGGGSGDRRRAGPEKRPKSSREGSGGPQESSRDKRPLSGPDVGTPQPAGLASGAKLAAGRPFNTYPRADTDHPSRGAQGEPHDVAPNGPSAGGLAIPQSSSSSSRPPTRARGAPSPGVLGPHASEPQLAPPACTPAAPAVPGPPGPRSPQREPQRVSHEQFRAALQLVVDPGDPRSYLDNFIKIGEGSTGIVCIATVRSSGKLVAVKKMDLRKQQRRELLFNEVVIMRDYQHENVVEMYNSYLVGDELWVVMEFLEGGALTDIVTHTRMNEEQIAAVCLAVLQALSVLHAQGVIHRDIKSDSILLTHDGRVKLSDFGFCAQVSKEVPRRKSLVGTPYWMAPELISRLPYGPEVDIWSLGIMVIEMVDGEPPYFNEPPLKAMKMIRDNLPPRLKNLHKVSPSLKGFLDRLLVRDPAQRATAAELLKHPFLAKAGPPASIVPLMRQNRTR

PDGFRA (human) = PDGFRA (human) (UniProt P16234)
PDGFRA (human), sequence (P16234 whole entry, looked up): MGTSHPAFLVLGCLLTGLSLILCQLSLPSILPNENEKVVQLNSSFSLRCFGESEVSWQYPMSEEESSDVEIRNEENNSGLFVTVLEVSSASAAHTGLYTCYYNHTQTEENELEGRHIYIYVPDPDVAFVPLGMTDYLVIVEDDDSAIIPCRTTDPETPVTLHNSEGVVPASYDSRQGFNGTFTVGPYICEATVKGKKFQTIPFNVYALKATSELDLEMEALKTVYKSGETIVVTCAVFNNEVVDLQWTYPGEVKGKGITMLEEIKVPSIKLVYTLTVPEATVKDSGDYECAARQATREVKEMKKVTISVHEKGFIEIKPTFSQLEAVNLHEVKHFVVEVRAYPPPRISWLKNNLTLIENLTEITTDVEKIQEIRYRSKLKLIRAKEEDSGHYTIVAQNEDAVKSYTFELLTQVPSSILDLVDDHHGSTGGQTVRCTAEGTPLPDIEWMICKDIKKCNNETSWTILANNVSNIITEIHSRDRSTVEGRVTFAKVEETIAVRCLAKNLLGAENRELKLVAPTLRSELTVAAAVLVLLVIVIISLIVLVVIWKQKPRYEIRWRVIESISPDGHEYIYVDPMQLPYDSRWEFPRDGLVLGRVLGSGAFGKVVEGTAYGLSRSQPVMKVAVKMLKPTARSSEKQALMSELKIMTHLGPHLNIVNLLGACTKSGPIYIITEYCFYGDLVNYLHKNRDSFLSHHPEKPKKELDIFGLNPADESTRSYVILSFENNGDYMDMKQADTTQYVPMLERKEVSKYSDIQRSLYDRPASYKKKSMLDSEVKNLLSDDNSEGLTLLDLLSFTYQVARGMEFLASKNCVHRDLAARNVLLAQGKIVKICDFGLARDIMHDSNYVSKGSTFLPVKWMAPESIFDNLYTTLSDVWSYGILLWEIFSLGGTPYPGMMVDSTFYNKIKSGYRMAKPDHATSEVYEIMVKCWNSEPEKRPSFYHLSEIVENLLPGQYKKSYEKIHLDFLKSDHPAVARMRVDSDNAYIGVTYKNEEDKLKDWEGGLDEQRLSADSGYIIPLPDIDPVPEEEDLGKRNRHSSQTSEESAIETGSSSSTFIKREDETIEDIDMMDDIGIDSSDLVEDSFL

PDGFRB (human) = PDGFRB (human) (UniProt P09619)
PDPK1 (human) = PDPK1 (human) (UniProt O15530)
PHKG2 (human) = PHKG2 (human) (UniProt P15735)
PIM3 (human) = PIM3 (human) (UniProt Q86V86)
PRKCE (human) = PRKCE (human) (UniProt Q02156)
PRKD2 (human) = PRKD2 (human) (UniProt Q9BZL6)
PTK2 (human) = PTK2 (human) (UniProt Q05397)
RPS6KA4 KD2 (human) = RPS6KA4 KD2 (human) (UniProt O75676)
RPS6KA5 KD2 (human) = RPS6KA5 KD2 (human) (UniProt O75582)
SLK (human) = SLK (human) (UniProt Q9H2G2)
STK11 (human) = STK11 (human) (UniProt Q15831)
TEC (human) = TEC (human) (UniProt P42680)
TXK (human) = TXK (human) (UniProt P42681)
[1] = molecular target: TYK2 JH1 catalytic (human) (UniProt P29597)

CAMK2B (human), sequence (Q13554 whole entry, looked up): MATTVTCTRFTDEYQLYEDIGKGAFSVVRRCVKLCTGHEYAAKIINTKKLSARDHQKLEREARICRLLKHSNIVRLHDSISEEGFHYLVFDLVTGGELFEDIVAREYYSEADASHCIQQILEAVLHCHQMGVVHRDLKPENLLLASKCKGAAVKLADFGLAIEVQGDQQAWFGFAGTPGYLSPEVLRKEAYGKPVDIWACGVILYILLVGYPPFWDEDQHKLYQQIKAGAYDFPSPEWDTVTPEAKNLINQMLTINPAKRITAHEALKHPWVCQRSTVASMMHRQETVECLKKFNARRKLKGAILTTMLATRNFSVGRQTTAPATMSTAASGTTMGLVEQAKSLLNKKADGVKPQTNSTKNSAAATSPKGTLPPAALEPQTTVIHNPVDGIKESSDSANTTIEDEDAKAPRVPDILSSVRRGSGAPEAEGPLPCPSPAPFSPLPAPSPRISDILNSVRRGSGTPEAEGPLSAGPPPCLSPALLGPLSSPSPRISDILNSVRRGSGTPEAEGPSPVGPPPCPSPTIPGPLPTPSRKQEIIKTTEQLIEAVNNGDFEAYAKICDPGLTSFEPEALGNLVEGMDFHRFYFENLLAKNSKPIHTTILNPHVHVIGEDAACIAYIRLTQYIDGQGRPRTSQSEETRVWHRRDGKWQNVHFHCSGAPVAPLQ

Nc1nccc(-c2c(-c3ccc(F)cc3)ncn2C2CCNCC2)n1
residual activity (AKT1 (human)): 99.9% | residual activity (BLK (human)): 102% | residual activity (CAMK2B (human)): 97.7% | residual activity (CAMKK1 (human)): 103% | residual activity (CDK2 CCNA2 (human)): 100% | residual activity (CDK5 CDK5R1 p25 (human)): 95.4% | residual activity (CSNK1G3 (human)): 83.9% | residual activity (DAPK2 (human)): 94.1% | residual activity (DDR2 (human)): 107% | residual activity (DSTYK (human)): 102% | residual activity (FES (human)): 103% | residual activity (FGFR1 (human)): 91.2% | residual activity (FLT3 (human)): 90.3% | residual activity (GRK7 (human)): 106% | residual activity (HIPK1 (human)): 101% | residual activity (ITK (human)): 90.5% | residual activity (JAK2 JH1 JH2 (human)): 99.6% | residual activity (JAK3 JH1 JH2 (human)): 96.9% | residual activity (LIMK1 (human)): 89.6% | residual activity (MAP2K1 (human)): 98.2% | residual activity (MAPK3 (human)): 100% | residual activity (MAPKAPK2 (human)): 97.6% | residual activity (MAPKAPK5 (human)): 94% | residual activity (MELK (human)): 100% | residual activity (NTRK1 (human)): 100% | residual activity (PAK3 (human)): 105% | residual activity (PAK4 (human)): 95.1% | residual activity (PDGFRA (human)): 95.8% | residual activity (PDGFRB (human)): 98.7% | residual activity (PDPK1 (human)): 103% | residual activity (PHKG2 (human)): 104% | residual activity (PIM3 (human)): 96% | residual activity (PRKCE (human)): 105% | residual activity (PRKD2 (human)): 50.4% | residual activity (PTK2 (human)): 94.1% | residual activity (RPS6KA4 KD2 (human)): 98.7% | residual activity (RPS6KA5 KD2 (human)): 97.9% | residual activity (SLK (human)): 99.9% | residual activity (STK11 (human)): 89.1% | residual activity (TEC (human)): 110% | residual activity (TXK (human)): 99.1% | residual activity [1]: 99.8%

O=C1NC(=O)C(c2c[nH]c3ccccc23)=C1c1c[nH]c2ccccc12
residual activity (AKT1 (human)): 87.7% | residual activity (BLK (human)): 93.7% | residual activity (CAMK2B (human)): 96.9% | residual activity (CAMKK1 (human)): 114% | residual activity (CDK2 CCNA2 (human)): 81.9% | residual activity (CDK5 CDK5R1 p25 (human)): 87.4% | residual activity (CSNK1G3 (human)): 89.9% | residual activity (DAPK2 (human)): 88.6% | residual activity (DDR2 (human)): 101% | residual activity (DSTYK (human)): 99.6% | residual activity (FES (human)): 99.8% | residual activity (FGFR1 (human)): 41.4% | residual activity (FLT3 (human)): 16.1% | residual activity (GRK7 (human)): 91.8% | residual activity (HIPK1 (human)): 102% | residual activity (ITK (human)): 102% | residual activity (JAK2 JH1 JH2 (human)): 100% | residual activity (JAK3 JH1 JH2 (human)): 63% | residual activity (LIMK1 (human)): 103% | residual activity (MAP2K1 (human)): 95.8% | residual activity (MAPK3 (human)): 105% | residual activity (MAPKAPK2 (human)): 95.6% | residual activity (MAPKAPK5 (human)): 119% | residual activity (MELK (human)): 82% | residual activity (NTRK1 (human)): 92% | residual activity (PAK3 (human)): 97.4% | residual activity (PAK4 (human)): 102% | residual activity (PDGFRA (human)): 90.6% | residual activity (PDGFRB (human)): 95.6% | residual activity (PDPK1 (human)): 96.7% | residual activity (PHKG2 (human)): 107% | residual activity (PIM3 (human)): 32.7% | residual activity (PRKCE (human)): 24% | residual activity (PRKD2 (human)): 87.4% | residual activity (PTK2 (human)): 101% | residual activity (RPS6KA4 KD2 (human)): 87.4% | residual activity (RPS6KA5 KD2 (human)): 62% | residual activity (SLK (human)): 45.4% | residual activity (STK11 (human)): 107% | residual activity (TEC (human)): 145% | residual activity (TXK (human)): 101% | residual activity [1]: 109%

O=C1Nc2ccccc2/C1=C1/Nc2ccccc2/C1=N\OCCC(O)CO (stereo not drawn)
residual activity (AKT1 (human)): 95.6% | residual activity (BLK (human)): 39.1% | residual activity (CAMK2B (human)): 57.9% | residual activity (CAMKK1 (human)): 26.2% | residual activity (CDK2 CCNA2 (human)): 15.5% | residual activity (CDK5 CDK5R1 p25 (human)): 16.4% | residual activity (CSNK1G3 (human)): 90.7% | residual activity (DAPK2 (human)): 104% | residual activity (DDR2 (human)): 86.1% | residual activity (DSTYK (human)): 104% | residual activity (FES (human)): 81.7% | residual activity (FGFR1 (human)): 27.9% | residual activity (FLT3 (human)): 1.07% | residual activity (GRK7 (human)): 70.3% | residual activity (HIPK1 (human)): 96% | residual activity (ITK (human)): 34.8% | residual activity (JAK2 JH1 JH2 (human)): 43.1% | residual activity (JAK3 JH1 JH2 (human)): 16.9% | residual activity (LIMK1 (human)): 39.5% | residual activity (MAP2K1 (human)): 99.7% | residual activity (MAPK3 (human)): 98.7% | residual activity (MAPKAPK2 (human)): 98.4% | residual activity (MAPKAPK5 (human)): 86.8% | residual activity (MELK (human)): 13.1% | residual activity (NTRK1 (human)): 3.84% | residual activity (PAK3 (human)): 73.8% | residual activity (PAK4 (human)): 84.5% | residual activity (PDGFRA (human)): 76.7% | residual activity (PDGFRB (human)): 42.8% | residual activity (PDPK1 (human)): 83.3% | residual activity (PHKG2 (human)): 34.9% | residual activity (PIM3 (human)): 58.5% | residual activity (PRKCE (human)): 92.2% | residual activity (PRKD2 (human)): 74.3% | residual activity (PTK2 (human)): 35% | residual activity (RPS6KA4 KD2 (human)): 21.7% | residual activity (RPS6KA5 KD2 (human)): 37.5% | residual activity (SLK (human)): 59.9% | residual activity (STK11 (human)): 5.77% | residual activity (TEC (human)): 101% | residual activity (TXK (human)): 25.6% | residual activity [1]: 9.42%

CC(=O)O/N=C1\C(=C2\C(=O)Nc3cc(Br)ccc32)Nc2ccccc21
residual activity (AKT1 (human)): 99.6% | residual activity (BLK (human)): 25.6% | residual activity (CAMK2B (human)): 91.5% | residual activity (CAMKK1 (human)): 72.7% | residual activity (CDK2 CCNA2 (human)): 22.3% | residual activity (CDK5 CDK5R1 p25 (human)): 51.4% | residual activity (CSNK1G3 (human)): 101% | residual activity (DAPK2 (human)): 68.7% | residual activity (DDR2 (human)): 89.8% | residual activity (DSTYK (human)): 81.1% | residual activity (FES (human)): 115% | residual activity (FGFR1 (human)): 68.8% | residual activity (FLT3 (human)): 21.6% | residual activity (GRK7 (human)): 99.5% | residual activity (HIPK1 (human)): 83% | residual activity (ITK (human)): 76.8% | residual activity (JAK2 JH1 JH2 (human)): 105% | residual activity (JAK3 JH1 JH2 (human)): 107% | residual activity (LIMK1 (human)): 69.7% | residual activity (MAP2K1 (human)): 84.9% | residual activity (MAPK3 (human)): 93.7% | residual activity (MAPKAPK2 (human)): 109% | residual activity (MAPKAPK5 (human)): 94.9% | residual activity (MELK (human)): 93.9% | residual activity (NTRK1 (human)): 54.7% | residual activity (PAK3 (human)): 99.1% | residual activity (PAK4 (human)): 92.7% | residual activity (PDGFRA (human)): 82.9% | residual activity (PDGFRB (human)): 51.6% | residual activity (PDPK1 (human)): 88.2% | residual activity (PHKG2 (human)): 96.6% | residual activity (PIM3 (human)): 54.2% | residual activity (PRKCE (human)): 86.2% | residual activity (PRKD2 (human)): 87.8% | residual activity (PTK2 (human)): 95.9% | residual activity (RPS6KA4 KD2 (human)): 97.6% | residual activity (RPS6KA5 KD2 (human)): 83.9% | residual activity (SLK (human)): 80.2% | residual activity (STK11 (human)): 73.6% | residual activity (TEC (human)): 131% | residual activity (TXK (human)): 46.4% | residual activity [1]: 81.6%
